The results in this text go back to publication PMC4644980, “The FDA-approved natural product dihydroergocristine reduces the production of the Alzheimer’s disease amyloid-β peptides” (Scientific Reports, 2015).

Several values for one entry are separate records, joined by “and”; a condition that tells them apart may be missing. Identical values can stand only once. Counter-ions that a name gives are not always drawn.

For assay [1], the target named is T1, γ-secretase (Homo sapiens, UniProt P49768+Q92542). In words: surface plasmon resonance, γ-secretase immobilized. The note with it: SPR, Biacore T100, NTA chip; read-out: equilibrium dissociation constant (Kd), γ-secretase. It counts as binding. On the set-up: made in house. As to the method:
A Biacore sensor Chip NTA that is designed to bind His-tagged proteins was used to immobilize γ-secretase. The SPR assay was performed in a running buffer (10 mM HEPES, 150 mM NaCl in the presence of 1% DMSO, pH 7.4). The purified His-tagged γ-secretase overexpressing human PS1, Flag-Pen-2, Aph-1a2-HA, and NCT-V5/His (see above) was diluted 6 times in DMSO-free running buffer. For each binding curve, the running buffer containing 500 μM NiCl2 was first injected to saturate the NTA chip. Then, His-tagged γ-secretase was injected and immobilized on the Ni^2+ -coated sensor chip. Compounds at the indicated concentrations were injected onto the surface of the sensor chip, and the corresponding binding spectrum was recorded. The sensor chip was regenerated with regeneration buffer (10 mM HEPES, 150 mM NaCl, 350 mM EDTA, pH 8.3). Purified human NCT (100 μg) was immobilized onto the flow cell of a CM5 sensor chip in 10 mM sodium acetate (pH 4.0) by using an amine coupling kit. The SPR assay was performed in HBS-P running buffer (10 mM HEPES, 150 mM NaCl and 0.005% surfactant P20 in the presence of 1% DMSO, pH 7.4). […] The Kd values were determined with Biacore evaluation 3.1 software.
On the technique in general: In SPR one partner is held on a chip, and binding of the other changes the refractive index at the surface.

Assay [2] concerns the target T1, γ-secretase. In words: cell-based luciferase reporter assay for γ-secretase inhibition (T100 cells). Also on record: endogenous in cells; host or cells: T-REx HeLa cells (T100) stably transfected with the substrate C99-Gal4-VP16 and a luciferase reporter. The note with it: 24 h, read-out: IC50 for inhibiting the activity of γ-secretase in T100 cells. As to the method: To identify natural product-based bioactive inhibitors of γ-secretase, we screened 417 natural products by using a cell-based luciferase reporter assay for γ-secretase inhibition (T100, see Methods), which we recently developed in TREx HeLa cells according to the methodology described in ref. [17]. […] Thus, this assay is sufficiently sensitive to detect the inhibitory effects of 100 nM DAPT on cellular γ-secretase activity. Additionally, this new cell-based assay tolerated up to 2% DMSO, which is a great advantage when screening inhibitors in a high-throughput format.
T-REx-HeLa cells (T100) stably overexpressing C99-Gal4-VP16 and luciferase were generated according to the method described in refs [17],[30]. For details, see Supplementary Information.
Cell-based γ-secretase assays were performed using the T100 cell line according to the methods detailed in ref. [30] (for details, see Supplementary information). […]
concentrations of substrate at 37 °C for 4 h, after which the enzymatic reactions were stopped by adding 0.5% SDS (final concentration). The samples were analyzed by Western Blot for AICD-Flag or Aβ. […]
For orientation: In a reporter assay the amount or activity of a reporter protein is the signal.

Turning to `CC(C)[C@@]1(NC(=O)[C@@H]2C[C@@H]3c4cccc5[nH]cc(c45)C[C@H]3N(C)C2)O[C@@]2(O)[C@@H]3CCCN3C(=O)[C@H](Cc3ccccc3)N2C1=O` [DHEC, Dihydroergocristine methanesulfonate salt], the dissociation constant Kd in assay [1] stood at 0.0257 µM. Moreover, in assay [2], the 50% inhibitory concentration (IC50) was 20 µM and ~25 µM.

In general, Kd refers to a measure of binding affinity in units of concentration. As usually defined, the IC50 is the point on the concentration scale where inhibition reaches its midpoint.
